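Following 48 hours of exposure in 96-well plates, responses at five concentrations were used to interpolate endpoints linearly. GI50: concentration for 50% inhibition of growth. TGI is the concentration that stops growth completely.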
Legend:
Test in all cases: NCI anticancer screen, dose series, 48 h
[1] = system: SF-539 CNS
[2] = system: T-47D breast
[3] = system: UACC-257 melanoma
[4] = system: IGROV1 ovarian
[5] = system: UO-31 renal
[6] = system: SK-MEL-2 melanoma
[7] = system: HS 578T breast
[8] = system: SK-MEL-28 melanoma
[9] = system: NCI-H23 lung
[10] = system: SF-268 CNS
[11] = system: HCT-116 colon
[12] = system: MDA-MB-231 breast
[13] = system: TK-10 renal
[14] = system: U251 CNS
[15] = system: BT-549 breast
[16] = system: DU-145 prostate
[17] = system: RXF 393 renal
[18] = system: KM12 colon
[19] = system: NCI-H522 lung
[20] = system: K-562 leukemia
[21] = system: A549 NSCLC
[22] = system: NCI/ADR-RES ovarian
[23] = system: EKVX NSCLC
[24] = system: HCT-15 colon
[25] = system: MDA-MB-435
[26] = system: PC-3 prostate
[27] = system: SK-MEL-5 melanoma
[28] = system: SK-OV-3 ovarian
[29] = system: RPMI-8226 leukemia
[30] = system: M14 melanoma
[31] = system: CAKI-1 renal
[32] = system: SW-620 colon
[33] = system: OVCAR-5 ovarian
[34] = system: UACC-62 melanoma
[35] = system: CCRF-CEM leukemia
[36] = system: OVCAR-4 ovarian
[37] = system: 786-0 renal
[38] = system: A498 renal
[39] = system: NCI-H226 lung
[40] = system: ACHN renal
[41] = system: HOP-62 NSCLC
[42] = system: LOX IMVI melanoma
[43] = system: SF-295 CNS
[44] = system: MCF7 breast
[45] = system: SN12C renal
[46] = system: HCC-2998 colon
[47] = system: COLO 205 colon
[48] = system: MOLT-4 leukemia
[49] = system: SNB-75 CNS
[50] = system: OVCAR-8 ovarian
[51] = system: NCI-H460 lung
[52] = system: HT29 colon
[53] = system: OVCAR-3 ovarian
[54] = system: SNB-19 CNS

## C=C1CC/C=C(\C)CC[C@H](C(=C)C)[C@@H](O)/C=C(/CO)CCC1O (stereo partly drawn)
[1]
  GI50: > 100 µM
  TGI: > 100 µM
[2]
  GI50: 45.7 µM
  TGI: > 100 µM
[3]
  GI50: > 100 µM
  TGI: > 100 µM
[4]
  GI50: 44.9 µM
  TGI: > 100 µM
[5]
  GI50: 62.2 µM
  TGI: > 100 µM
[6]
  GI50: > 100 µM
  TGI: > 100 µM
[7]
  GI50: 42.5 µM
  TGI: > 100 µM
[8]
  GI50: > 100 µM
  TGI: > 100 µM
[9]
  GI50: 80.6 µM
  TGI: > 100 µM
[10]
  GI50: 78.4 µM
  TGI: > 100 µM
[11]
  GI50: 35.4 µM
  TGI: > 100 µM
[12]
  GI50: > 100 µM
  TGI: > 100 µM
[13]
  GI50: 17.4 µM
  TGI: 68.7 µM
[14]
  GI50: 85.2 µM
  TGI: > 100 µM
[15]
  GI50: 48.2 µM
  TGI: > 100 µM
[16]
  GI50: 93.2 µM
  TGI: > 100 µM
[17]
  GI50: 89.9 µM
  TGI: > 100 µM
[18]
  GI50: 4.58 µM
  TGI: > 100 µM
[19]
  GI50: 60.7 µM
  TGI: > 100 µM
[20]
  GI50: 24.5 µM
  TGI: 69.7 µM
[21]
  GI50: 74.4 µM
  TGI: > 100 µM
[22]
  GI50: > 100 µM
  TGI: > 100 µM
[23]
  GI50: 60.4 µM
  TGI: > 100 µM
[24]
  GI50: > 100 µM
  TGI: > 100 µM
[25]
  GI50: 40.5 µM
  TGI: > 100 µM
[26]
  GI50: 43.4 µM
  TGI: > 100 µM
[27]
  GI50: 35.1 µM
  TGI: > 100 µM
[28]
  GI50: > 100 µM
  TGI: > 100 µM
[29]
  GI50: 32 µM
  TGI: 71.6 µM
[30]
  GI50: 71.7 µM
  TGI: > 100 µM
[31]
  GI50: 81.4 µM
  TGI: > 100 µM
[32]
  GI50: 72.8 µM
  TGI: > 100 µM
[33]
  GI50: > 100 µM
  TGI: > 100 µM
[34]
  GI50: 57.3 µM
  TGI: > 100 µM
[35]
  GI50: 24 µM
  TGI: 48.6 µM
[36]
  GI50: > 100 µM
  TGI: > 100 µM
[37]
  GI50: > 100 µM
  TGI: > 100 µM
[38]
  GI50: > 100 µM
  TGI: > 100 µM
[39]
  GI50: > 100 µM
  TGI: > 100 µM
[40]
  GI50: > 100 µM
  TGI: > 100 µM
[41]
  GI50: > 100 µM
  TGI: > 100 µM
[42]
  GI50: 50.4 µM
  TGI: > 100 µM
[43]
  GI50: 71.9 µM
  TGI: > 100 µM
[44]
  GI50: 21.4 µM
  TGI: > 100 µM
[45]
  GI50: > 100 µM
  TGI: > 100 µM
[46]
  GI50: > 100 µM
  TGI: > 100 µM
[47]
  GI50: 88.2 µM
  TGI: > 100 µM
[48]
  GI50: 24 µM
  TGI: 53.6 µM
[49]
  GI50: > 100 µM
  TGI: > 100 µM
[50]
  GI50: > 100 µM
  TGI: > 100 µM
[51]
  GI50: 54.8 µM
  TGI: > 100 µM
[52]
  GI50: > 100 µM
  TGI: > 100 µM
[53]
  GI50: 40 µM
  TGI: > 100 µM
[54]
  GI50: > 100 µM
  TGI: > 100 µM
